According to paper PMC12501277, “The deubiquitylase OTUB1 drives gemcitabine resistance in pancreatic cancer by enhancing pyrimidine metabolism through modulating DHODH mRNA stability” (Cell Death & Disease, 2025):

Target: T1, OTUB1 (Homo sapiens, UniProt Q96FW1)
T1 construct: Recombinant human OTUB1 protein (Abcam, ab157086)
Assay: SPR (Biacore 8K, OTUB1 immobilized on CM5 chip)
Type: binding

T1 sequence (Q96FW1 2-271): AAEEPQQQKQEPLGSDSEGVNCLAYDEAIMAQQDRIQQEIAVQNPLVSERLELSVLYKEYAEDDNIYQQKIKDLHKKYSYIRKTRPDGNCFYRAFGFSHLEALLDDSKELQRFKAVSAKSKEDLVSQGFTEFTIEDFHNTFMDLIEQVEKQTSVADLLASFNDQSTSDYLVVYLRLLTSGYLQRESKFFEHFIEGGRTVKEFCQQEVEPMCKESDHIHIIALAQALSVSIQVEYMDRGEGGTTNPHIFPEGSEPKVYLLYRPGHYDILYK

A Kd of 23.5 µM was found for COc1cc(NC(=O)CCN2CCC(OC(=O)Nc3ccccc3-c3ccccc3)CC2)c(Cl)cc1CNC[C@H](O)c1ccc(O)c2[nH]c(=O)ccc12 [Batefenterol] in this work.
